Data set [1] has as its target Sir2 (Saccharomyces cerevisiae, UniProt P06700). The settings on record: cited from earlier work.
In data set [2] the test system is HDAC. The note with it: in vitro or in vivo; cited from earlier work.
For data set [3], the system named is retinal ganglion cells. The note with it: treated animals; cited from earlier work.
For data set [4] the following is noted: topical; cited from earlier work.
Data set [5] has as its target cytochrome oxidase (Complex IV) (Homo sapiens, UniProt P00395). The note with it: cited from earlier work.
The nature of data set [6]: Dilution of liquid resveratrol formulations with purified water (precipitation). The settings on record: DS dissolved in Gelucire 44/14 at 100 mg/g. Format: physicochemical. The protocol:
A liquid formulation was prepared by dissolving resveratrol (drug substance, DS) and monoacyl phospholipid in a mixture of PEG 300 and propyleneglycol. The ratio between the DS and phospholipid was 1/12 w/w in PEG 300/propyleneglycol 1/1 w/was solvent mixture. The formulation, which has a 5% drug load, was clear after dilution in purified water for more than 4 hours. Starting from Formulation 13, the drug load was increased to 10% using the same 1/1 w/w ratio of Vit E TPGS/DS and replacing propyleneglycol with Labrasol™. Upon one-fold dilution with water a slight DS precipitation was observed. […] After a few hours, some oil droplets were visible on the surface of the water phase. To further improve Formulation 11, the use of the two lipids Gelucire™ 44/14 and Labrasol™ were explored as main components in the formulations. […] The DS precipitated in the form of oil-like droplets. […] Higher drug loads can be achieved by using the two lipids in combination with ethanol as additional solvent/excipient to fully solubilize the drug in the formulation.

Data set [7] deals with C. elegans. The settings on record: in vivo; cited from earlier work.
Data set [8] relates to mammalian cells. The note with it: cited from earlier work.
Data set [9] relates to insulin resistant cells. The settings on record: cited from earlier work.

This is an account of results in patent US20110009496A1, “RESVERATROL FORMULATIONS” (SIRTRIS PHARMACEUTICAS, INC., priority 2008, published 2011).

Sequence of Sir2 (P06700 whole entry): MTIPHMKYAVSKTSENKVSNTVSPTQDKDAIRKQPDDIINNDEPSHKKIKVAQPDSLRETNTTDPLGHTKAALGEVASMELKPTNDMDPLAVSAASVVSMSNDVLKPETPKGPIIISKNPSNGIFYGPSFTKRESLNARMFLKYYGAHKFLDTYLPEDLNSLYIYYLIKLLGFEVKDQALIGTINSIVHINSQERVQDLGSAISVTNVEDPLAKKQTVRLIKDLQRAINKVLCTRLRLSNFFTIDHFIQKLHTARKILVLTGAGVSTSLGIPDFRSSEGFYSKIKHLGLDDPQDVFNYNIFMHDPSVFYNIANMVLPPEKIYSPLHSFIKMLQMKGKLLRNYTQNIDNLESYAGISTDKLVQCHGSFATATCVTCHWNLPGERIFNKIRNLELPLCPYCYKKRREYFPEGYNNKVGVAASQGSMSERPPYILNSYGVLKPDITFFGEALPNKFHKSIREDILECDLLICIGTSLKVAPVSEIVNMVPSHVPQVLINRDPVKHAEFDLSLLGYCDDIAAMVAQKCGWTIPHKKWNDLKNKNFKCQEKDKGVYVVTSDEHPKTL

As to `CC(/C=C/C(=O)NO)=C\[C@@H](C)C(=O)c1ccc(N(C)C)cc1` [TSA, trichostatin A], in [1], the “sensitivity of Sir2 to histone deacetylase inhibitors” value is “insensitive”. In data set [2], the “inhibition of HDAC (concentration level in words)” value (from here on “inhibition of HDAC”) was “potent inhibitor”. Turning to `C/C=C1\NC(=O)[C@H]2CSSCC/C=C/[C@H](CC(=O)N[C@H](C(C)C)C(=O)N2)OC(=O)[C@H](C(C)C)NC1=O` [Depsipeptide, depsipeptide], the “inhibition of HDAC” value in data set [2] was “micromolar concentrations”. Regarding `N=C(N)NN` [aminoguanidine], in [3], the “loss of retinal ganglion cells” value is given as “reduction in the loss of retinal ganglion cells”. Regarding `CC(C)(C)NC[C@H](O)COc1nsnc1N1CCOCC1` [timolol], in [4], the “time for IOP to fall” value is 30 min and the “time of peak effects on IOP” value was 1 to 2 h. Consider `[N]=O` [Nitric oxide], for which, in data set [5], the “concentration that inhibits cytochrome oxidase (Complex IV)” value is reported as “about 1 micromolar”. As for depudecin, in data set [2], the “inhibition of HDAC” value is given as “micromolar concentrations”.

As for `Oc1ccc(/C=C/c2cc(O)cc(O)c2)cc1` [resveratrol, 3,5,4′-trihydroxystilbene], the “precipitation after dilution with purified water” value in data set [6] is “precipitated in a fast manner”. For the same molecule, in data set [7], the “fat accumulation in C. elegans” value is “prevent fat accumulation” and the “fat mobilization in C. elegans” value is reported as “promotes fat mobilization”. Moreover, in data set [8], the “adipogenesis in mammalian cells” value was “inhibit adipogenesis” and the “fat mobilization in mammalian cells” value is “stimulate fat mobilization”. The “insulin sensitivity in insulin resistant cells” value in data set [9] is on record as “at least partially restore insulin sensitivity”. With `O=C(/C=C/c1cccc(C(=O)NO)c1)NO` [CBHA, m-carboxy-cinnamic acid bishydroxamic acid], the “inhibition of HDAC” value in data set [2] is on record as “micromolar concentration or lower”.
